Molecules are shown by their SMILES.

For the first data set, the system named is Human lung adenocarcinoma cell line A549. Description: In vitro cytotoxicity test of camptothecin payloads (CellTiter-Glo). In kind it is cell-based. As to conditions: Homo sapiens, A549, 72 h, read-out: A549 Cytotoxicity IC50 (nM). The method, then: Human lung adenocarcinoma cell line A549 was used to evaluate the cytotoxicity of small molecule fragment of the present invention. A549 cells were seeded to a 96-well plate at 2000 cells per well.
For `CC[C@@]1(O)C(=O)OCc2c1cc1n(c2=O)Cc2c-1nc1cc(F)c(C)cc1c2CN1CCC[C@@H](O)C1` [Example 18, (S)-4-ethyl-8-fluoro-4-hydroxy-11-(((R)-3-hydroxypiperidin-1-yl)methyl)-9-methyl-1H-pyrano[3′,4′:6,7] indolizino[1,2-b]quinoline-3,14(4H,12H)-dione], the IC50 was 19.7 nM.

Consider `CC[C@@]1(O)C(=O)OCc2c1cc1n(c2=O)Cc2c-1nc1ccc(O)cc1c2CN1CCC([C@@H](C)O)CC1` [Example 38, (S)-4-ethyl-4,9-dihydroxy-11-((4-((R)-1-hydroxyethyl)piperidin-1-yl)methyl)-1,12-dihydro-14H-pyrano[3′,4′:6,7] indolizino[1,2-b]quinoline-3,14(4H)-dione], for which the IC50 is 1250 nM.

Consider `CC[C@@]1(O)C(=O)OCc2c1cc1n(c2=O)Cc2c-1nc1cc(F)c(C)cc1c2CN1C[C@H]2C[C@@H](C1)C2O` (stereo partly drawn) [Example 47, (4S)-4-ethyl-8-fluoro-4-hydroxy-11-(((1R,5S)-6-hydroxy-3-azabicyclo[3.1.1]heptan-3-yl)methyl)-9-methyl-1,12-dihydro-14H-pyrano[3',4':6,7] indolizino[1,2-b]quinoline-3,14(4H)-dione], for which the IC50 is 28 nM.

Take `CC[C@@]1(O)C(=O)OCc2c1cc1n(c2=O)Cc2c-1nc1cc(F)c(C)cc1c2CN1CCC2(CC1)CC(O)C2` [Example 31, (S)-4-ethyl-8-fluoro-4-hydroxy-11-((2-hydroxy-7-azaspiro[3.5]nonan-7-yl)methyl)-9-methyl-1H-pyrano[3′,4′:6,7] indolizino[1,2-b]quinoline-3,14(4H,12H)-dione]: the 50% inhibitory concentration (IC50) amounted to 12.5 nM.

For `CC[C@@]1(O)C(=O)OCc2c1cc1n(c2=O)Cc2c-1nc1cc(F)c(C)cc1c2CN1CCC2(CCC2O)CC1` (stereo partly drawn) [Example 32, (4S)-4-ethyl-8-fluoro-4-hydroxy-11-((1-hydroxy-7-azaspiro[3.5]nonan-7-yl)methyl)-9-methyl-1H-pyrano[3′,4′:6,7] indolizino[1,2-b]quinoline-3,14(4H,12H)-dione], the IC50 was 12.6 nM.

In the case of `CC[C@@]1(O)C(=O)OCc2c1cc1n(c2=O)Cc2c-1nc1cc(F)c(C)cc1c2CN1CC[C@@H](O)C1=O` [Example 1, (S)-4-ethyl-8-fluoro-4-hydroxy-11-(((R)-3-hydroxy-2-oxopyrrolidin-1-yl)methyl)-9-methyl-1H-pyrano[3′,4′:6,7] indolizino[1,2-b]quinoline-3,14(4H,12H)-dione], the IC50 is 515 nM.

As to `CC[C@@]1(O)C(=O)OCc2c1cc1n(c2=O)Cc2c-1nc1cc(F)c(C)cc1c2CN1CCC(C(C)O)CC1` (stereo partly drawn) [Example 13, (4S)-4-ethyl-8-fluoro-4-hydroxy-11-((4-(1-hydroxyethyl)piperidin-1-yl)methyl)-9-methyl-1H-pyrano[3′,4′:6,7] indolizino[1,2-b]quinoline-3,14(4H,12H)-dione], the IC50 turned out to be 33 nM.

For `CC[C@@]1(O)C(=O)OCc2c1cc1n(c2=O)Cc2c-1nc1cc(F)c(OC)cc1c2CN1CCC([C@@H](C)O)CC1` [Example 41, (S)-4-ethyl-8-fluoro-4-hydroxy-11-((4-((R)-1-hydroxyethyl)piperidin-1-yl)methyl)-9-methoxy-1,12-dihydro-14H-pyrano[3′,4′:6,7] indolizino[1,2-b]quinoline-3,14(4H)-dione], the IC50 was 31 nM.

In the case of `CC[C@@]1(O)C(=O)OCc2c1cc1n(c2=O)Cc2c-1nc1cc(F)c(C)cc1c2CN1CCC[C@H](O)C1` [Example 19, (S)-4-ethyl-8-fluoro-4-hydroxy-11-(((S)-3-hydroxypiperidin-1-yl)methyl)-9-methyl-1H-pyrano[3′,4′:6,7] indolizino[1,2-b]quinoline-3,14(4H,12H)-dione], the IC50 was found to be 15.7 nM.

For the molecule `CC[C@@]1(O)C(=O)OCc2c1cc1n(c2=O)Cc2c-1nc1cc(F)c(C)cc1c2CN1CCCC1CO` (stereo partly drawn) [Example 5, (4S)-4-ethyl-8-fluoro-4-hydroxy-11-((2-(hydroxymethyl)pyrrolidin-1-yl)methyl)-9-methyl-1H-pyrano[3′,4′:6,7] indolizino[1,2-b]quinoline-3,14(4H,12H)-dione], the IC50 stood at 65 nM.

As for `CC[C@@]1(O)C(=O)OCc2c1cc1n(c2=O)Cc2c-1nc1ccc(OCC(=O)N3CCCCC3)cc1c2CN1CCC([C@@H](C)O)CC1` [Example 40, (S)-4-ethyl-4-hydroxy-11-((4-((R)-1-hydroxyethyl)piperidin-1-yl)methyl)-9-(2-oxo-2-(piperidin-1-yl)ethoxy)-1,12-dihydro-14H-pyrano[3′,4′:6,7] indolizino[1,2-b]quinoline-3,14(4H)-dione], the 50% inhibitory concentration (IC50) worked out at 1290 nM.

For `CC[C@@]1(O)C(=O)OCc2c1cc1n(c2=O)Cc2c-1nc1cc(F)c(C)cc1c2CN1C2CCC1(CO)CC2` [Example 20, (S)-4-ethyl-8-fluoro-4-hydroxy-11-((1-(hydroxymethyl)-7-azabicyclo[2.2.1]heptan-7-yl)methyl)-9-methyl-1H-pyrano[3′,4′:6,7] indolizino[1,2-b]quinoline-3,14(4H,12H)-dione], the IC50 was determined as 24.1 nM.

Turning to `CC[C@@]1(O)C(=O)OCc2c1cc1n(c2=O)Cc2c-1nc1cc(F)c(C)cc1c2CN1CCCC1(C)CO` (stereo partly drawn) [Example 21, (4S)-4-ethyl-8-fluoro-4-hydroxy-11-((2-(hydroxymethyl)-2-methylpyrrolidin-1-yl)methyl)-9-methyl-1H-pyrano[3′,4′:6,7] indolizino[1,2-b]quinoline-3,14(4H,12H)-dione], the IC50 was determined as 55 nM.

In the case of `CC[C@@]1(O)C(=O)OCc2c1cc1n(c2=O)Cc2c-1nc1cc3c(cc1c2CN1C[C@@H]2CCC[C@@H]2[C@H]1CO)OCCO3` [Example 45], the IC50 is 53 nM.

For `CC[C@@]1(O)C(=O)OCc2c1cc1n(c2=O)Cc2c-1nc1cc(F)c(C)cc1c2CN1CC2C(C1CO)C2(C)C` (stereo partly drawn) [Example 23, (4S)-4-ethyl-8-fluoro-4-hydroxy-11-((2-(hydroxymethyl)-6,6-dimethyl-3-azabicyclo[3.1.0]hexan-3-yl)methyl)-9-methyl-1H-pyrano[3′,4′:6,7] indolizino[1,2-b]quinoline-3,14(4H,12H)-dione], the IC50 amounted to 49 nM.

As for `CC[C@@]1(O)C(=O)OCc2c1cc1n(c2=O)Cc2c-1nc1cc(F)c(C)cc1c2CN1CCC(C(O)C(F)(F)F)CC1` (stereo partly drawn) [Example 29, (4S)-4-ethyl-8-fluoro-4-hydroxy-9-methyl-11-((4-(2,2,2-trifluoro-1-hydroxyethyl)piperidin-1-yl)methyl)-1H-pyrano[3′,4′:6,7] indolizino[1,2-b]quinoline-3,14(4H,12H)-dione], the IC50 is 29.8 nM.

For the molecule `CC[C@@]1(O)C(=O)OCc2c1cc1n(c2=O)Cc2c-1nc1cc(F)c(C)cc1c2CN1CCC(O)CC1` [Example 16, (S)-4-ethyl-8-fluoro-4-hydroxy-11-((4-hydroxypiperidin-1-yl)methyl)-9-methyl-1H-pyrano[3′,4′:6,7] indolizino[1,2-b]quinoline-3,14(4H,12H)-dione], the IC50 amounted to 81 nM.

Turning to `CC[C@@]1(O)C(=O)OCc2c1cc1n(c2=O)Cc2c-1nc1cc(F)c(C)cc1c2CN1CCC(CO)C1` (stereo partly drawn) [Example 8, (4S)-4-ethyl-8-fluoro-4-hydroxy-11-((3-(hydroxymethyl)pyrrolidin-1-yl)methyl)-9-methyl-1H-pyrano[3′,4′:6,7] indolizino[1,2-b]quinoline-3,14(4H,12H)-dione], the IC50 stood at 82 nM.

Turning to `CC[C@@]1(O)C(=O)OCc2c1cc1n(c2=O)Cc2c-1nc1cc(F)c(C)cc1c2CN1CCCCC1CO` (stereo partly drawn) [Example 11, (4S)-4-ethyl-8-fluoro-4-hydroxy-11-((2-(hydroxymethyl)piperidin-1-yl)methyl)-9-methyl-1H-pyrano[3′,4′:6,7] indolizino[1,2-b]quinoline-3,14(4H,12H)-dione], the half-inhibitory concentration (IC50) amounted to 60 nM.

As for `CC[C@@]1(O)C(=O)OCc2c1cc1n(c2=O)Cc2c-1nc1cc(F)c(C)cc1c2CN1CCC(CCO)CC1` [Example 27, (S)-4-ethyl-8-fluoro-4-hydroxy-11-((4-(2-hydroxyethyl)piperidin-1-yl)methyl)-9-methyl-1H-pyrano[3′,4′:6,7] indolizino[1,2-b]quinoline-3,14(4H,12H)-dione], the IC50 was 16.8 nM.

In the case of `CC[C@@]1(O)C(=O)OCc2c1cc1n(c2=O)Cc2c-1nc1cc(F)c(C)cc1c2CN1CCCC(CO)C1` (stereo partly drawn) [Example 12, (4S)-4-ethyl-8-fluoro-4-hydroxy-11-((3-(hydroxymethyl)piperidin-1-yl)methyl)-9-methyl-1H-pyrano[3′,4′:6,7] indolizino[1,2-b]quinoline-3,14(4H,12H)-dione], the half-maximal inhibitory concentration (IC50) was 90 nM.

Regarding `CC[C@@]1(O)C(=O)OCc2c1cc1n(c2=O)Cc2c-1nc1cc(F)c(C)cc1c2CN1CCC(C2(O)CCC2)CC1` [Example 30, (S)-4-ethyl-8-fluoro-4-hydroxy-11-((4-(1-hydroxycyclobutyl)piperidin-1-yl)methyl)-9-methyl-1H-pyrano[3′,4′:6,7] indolizino[1,2-b]quinoline-3,14(4H,12H)-dione], the IC50 amounted to 28.6 nM.

On to `CC[C@@]1(O)C(=O)OCc2c1cc1n(c2=O)Cc2c-1nc1cc3c(cc1c2CN1CCC2(CC1)CC(O)C2)OCCO3` [Example 44], for which the IC50 was 30 nM.

In the case of `CC[C@@]1(O)C(=O)OCc2c1cc1n(c2=O)Cc2c-1nc1cc(F)c(C)cc1c2CN1CC(C)(C)C[C@@H]1CO` [Example 22, (S)-4-ethyl-8-fluoro-4-hydroxy-11-(((R)-2-(hydroxymethyl)-4,4-dimethylpyrrolidin-1-yl)methyl)-9-methyl-1H-pyrano[3′,4′:6,7] indolizino[1,2-b]quinoline-3,14(4H,12H)-dione], the IC50 came to 14.3 nM.

With `CC[C@@]1(O)C(=O)OCc2c1cc1n(c2=O)Cc2c-1nc1cc(F)c(C)c3c1c2[C@@H](NC(=O)CO)CC3` [Dxd, reference compound], the IC50 is 78 nM.

The data set is the same for the next values; noted with them: comparison between analogs of Table 1.
On to `CC[C@@]1(O)C(=O)OCc2c1cc1n(c2=O)Cc2c-1nc1cc(F)c(C)cc1c2CN1CC[C@@H](O)C1=O` [Example 1, (S)-4-ethyl-8-fluoro-4-hydroxy-11-(((R)-3-hydroxy-2-oxopyrrolidin-1-yl)methyl)-9-methyl-1H-pyrano[3′,4′:6,7] indolizino[1,2-b]quinoline-3,14(4H,12H)-dione], for which the “relative A549 cytotoxic potency in words” value is “much less potent”.

Staying with this data set, now noted: human, 3 days.
For `CC[C@@]1(O)C(=O)OCc2c1cc1n(c2=O)Cc2c-1nc1cc(F)c(C)cc1c2CN1CCC[C@H](O)C1` [Example 19, (S)-4-ethyl-8-fluoro-4-hydroxy-11-(((S)-3-hydroxypiperidin-1-yl)methyl)-9-methyl-1H-pyrano[3′,4′:6,7] indolizino[1,2-b]quinoline-3,14(4H,12H)-dione], the “relative A549 cytotoxic potency in words” value is recorded as “more potent than Example 17”.

In the case of `CC[C@@]1(O)C(=O)OCc2c1cc1n(c2=O)Cc2c-1nc1cc(F)c(C)cc1c2CN1CCCCC1CO` (stereo partly drawn) [Example 11, (4S)-4-ethyl-8-fluoro-4-hydroxy-11-((2-(hydroxymethyl)piperidin-1-yl)methyl)-9-methyl-1H-pyrano[3′,4′:6,7] indolizino[1,2-b]quinoline-3,14(4H,12H)-dione], the “relative A549 cytotoxic potency in words” value was “less potent than Example 17”.

In the case of `CC[C@@]1(O)C(=O)OCc2c1cc1n(c2=O)Cc2c-1nc1cc(F)c(C)cc1c2CN1CCCC(CO)C1` (stereo partly drawn) [Example 12, (4S)-4-ethyl-8-fluoro-4-hydroxy-11-((3-(hydroxymethyl)piperidin-1-yl)methyl)-9-methyl-1H-pyrano[3′,4′:6,7] indolizino[1,2-b]quinoline-3,14(4H,12H)-dione], the “relative A549 cytotoxic potency in words” value is on record as “less potent than Example 17”.
